Patent publication US20070049593A1 (priority 2004, published 2007)
Structures can show the parent of a compound that is named as a salt.

Target: T1, HCV polymerase (Hepatitis C virus genotype 1b, UniProt P26663)
T1 construct: a region encoding NS5B (J Virol 1991 March, 65(3), 1105-13, 544 amino acids after deletion of 47 amino acids on the C-terminal); 6xHis (C); made in house; host or cells: Escherichia coli
Test: biochemical
Design: species or system HCV BK strain
In short: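 Recombinant HCV BK-strain NS5B (C-terminal 47 aa deleted, His6-tagged, E. coli), 0.5 μg/ml, run with 5 μg/ml in vitro-transcribed RNA template (polyU/3′X), ATP/GTP/CTP 50 μM, UTP 2 μM plus [3H]UTP, pH 7.5, 25° C, 90 min. TCA-precipitated RNA counted by scintillation; IC50 from activity with vs without compound.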

T1 sequence (P26663 2420-2963): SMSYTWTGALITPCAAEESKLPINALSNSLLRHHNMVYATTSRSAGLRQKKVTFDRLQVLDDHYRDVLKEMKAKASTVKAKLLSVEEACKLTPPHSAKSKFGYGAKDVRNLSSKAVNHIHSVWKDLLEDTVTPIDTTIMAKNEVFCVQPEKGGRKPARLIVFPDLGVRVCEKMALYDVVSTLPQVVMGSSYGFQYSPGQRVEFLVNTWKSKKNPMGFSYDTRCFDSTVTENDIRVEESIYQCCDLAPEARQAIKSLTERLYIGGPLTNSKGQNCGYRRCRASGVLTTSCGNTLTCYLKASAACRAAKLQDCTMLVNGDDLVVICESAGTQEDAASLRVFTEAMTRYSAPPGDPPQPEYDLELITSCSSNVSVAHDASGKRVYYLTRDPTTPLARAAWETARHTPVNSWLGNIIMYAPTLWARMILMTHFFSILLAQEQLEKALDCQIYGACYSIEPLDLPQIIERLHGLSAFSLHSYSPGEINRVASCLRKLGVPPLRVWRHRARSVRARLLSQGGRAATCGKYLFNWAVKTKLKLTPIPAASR

| SMILES | IC50 |
| --- | --- |
| COC1CCCN(CCN2CCn3c(c(C4CCCCC4)c4ccc(C(=O)O)cc43)-c3ccccc32)C1 (centres unmarked) [Example 1-151, 13-cyclohexyl-5-[2-(3-methoxypiperidin-1-yl)ethyl]-6,7-dihydro-5H-benzo[5,6][1,4]diazepino[7,1-a]indole-10-carboxylic acid dihydrochloride] | < 100 nM |
| CC(C)(C)OC(=O)N1CCCC(CN2CCn3c(c(C4CCCCC4)c4ccc(C(=O)O)cc43)-c3ccccc32)C1 (centres unmarked) [Example 1-152, 5-(1-tert-butoxycarbonylpiperidin-3-ylmethyl)-13-cyclohexyl-6,7-dihydro-5H-benzo[5,6][1,4]diazepino[7,1-a]indole-10-carboxylic acid] | < 100 nM |
| CCN1CCCC(CN2CCn3c(c(C4CCCCC4)c4ccc(C(=O)O)cc43)-c3ccccc32)C1 (centres unmarked) [Example 1-153, 13-cyclohexyl-5-(1-ethylpiperidin-3-ylmethyl)-6,7-dihydro-5H-benzo[5,6][1,4]diazepino[7,1-a]indole-10-carboxylic acid dihydrochloride] | < 100 nM |
| O=C(O)c1ccc2c(C3CCCCC3)c3n(c2c1)CCN(CCN1CCCCCCC1)c1ccccc1-3 [Example 1-154, 5-[2-(azocan-1-yl)ethyl]-13-cyclohexyl-6,7-dihydro-5H-benzo[5,6][1,4]diazepino[7,1-a]indole-10-carboxylic acid] | < 100 nM |
| O=C(O)c1ccc2c(C3CCCCC3)c3n(c2c1)CCN(CCN1CCCCCCCC1)c1ccccc1-3 [Example 1-155, 5-[2-(azonan-1-yl)ethyl]-13-cyclohexyl-6,7-dihydro-5H-benzo[5,6][1,4]diazepino[7,1-a]indole-10-carboxylic acid] | < 100 nM |
| CC1CCCCN1CCN1CCn2c(c(C3CCCCC3)c3ccc(C(=O)O)cc32)-c2ccccc21 (centres unmarked) [Example 1-156, 13-cyclohexyl-5-[2-(2-methylpiperidin-1-yl)ethyl]-6,7-dihydro-5H-benzo[5,6][1,4]diazepino[7,1-a]indole-10-carboxylic acid] | < 100 nM |
| O=C(O)c1ccc2c(C3CCCCC3)c3n(c2c1)CCN(CCC1CCN(C2CCCC2)CC1)c1ccccc1-3 [Example 1-157, 13-cyclohexyl-5-[2-(1-cyclopentylpiperidin-4-yl)ethyl]-6,7-dihydro-5H-benzo[5,6][1,4]diazepino[7,1-a]indole-10-carboxylic acid dihydrochloride] | < 100 nM |
| O=C(O)c1ccc2c(C3CCCCC3)c3n(c2c1)CCN(CC(=O)N1CCC(C(F)(F)F)CC1)c1ccccc1-3 [Example 1-158, 13-cyclohexyl-5-[2-oxo-2-(4-trifluoromethylpiperidin-1-yl)ethyl]-6,7-dihydro-5H-benzo[5,6][1,4]diazepino[7,1-a]indole-10-carboxylic acid monohydrochloride] | < 100 nM |
| O=C(O)c1ccc2c(C3CCCCC3)c3n(c2c1)CCN(CCN1CCCCC1)c1cc(C(F)(F)F)ccc1-3 [Example 1-159, 13-cyclohexyl-5-[2-(piperidin-1-yl)ethyl]-3-trifluoromethyl-6,7-dihydro-5H-benzo[5,6][1,4]diazepino[7,1-a]indole-10-carboxylic acid dihydrochloride] | < 100 nM |
| CCN1CCN(CCN2CCn3c(c(C4CCCCC4)c4ccc(C(=O)O)cc43)-c3ccc(F)cc32)CC1 [Example 1-160, 13-cyclohexyl-5-[2-(4-ethylpiperazin-1-yl)ethyl]-3-fluoro-6,7-dihydro-5H-benzo[5,6][1,4]diazepino[7,1-a]indole-10-carboxylic acid trihydrochloride] | < 100 nM |
| CC(C)(C)OC(=O)N1CCCCC1CCN1CCn2c(c(C3CCCCC3)c3ccc(C(=O)O)cc32)-c2ccccc21 (centres unmarked) [Example 1-161, 5-[2-(1-tert-butoxycarbonylpiperidin-2-yl)ethyl]-13-cyclohexyl-6,7-dihydro-5H-benzo[5,6][1,4]diazepino[7,1-a]indole-10-carboxylic acid monohydrochloride] | < 100 nM |
